Assay results: the supplement of paper PMC5908809

Key:
[1] = system: normal NK cells expanded with K562-aAPC; assay: percent inhibition of viability; higher = more inhibition; settings: 72 h, IL-2 2.5 ng/mL
Procedure: (§1)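 Drug sensitivity and resistance testing on K562-aAPC-expanded normal NK cells: 5 concentrations (10-fold steps over a 10,000-fold range), 72 h at 37 °C, viability by CellTiter-Glo normalised to DMSO and benzethonium chloride controls; DSS from the fitted curve.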

[2] = system: DERL-7 (IL-2 2.5 ng/mL); assay: as above; settings: 72 h
[3] = system: IMC-1 (IL-2 20 ng/mL); assay: as above; settings: 72 h
[4] = system: KAI3 (IL-2 2.5 ng/mL); assay: as above; settings: 72 h
[5] = system: KHYG-1 (IL-2 2.5 ng/mL); assay: as above; settings: 72 h
[6] = system: NK-92 (IL-2 2.5 ng/mL); assay: as above; settings: 72 h
[7] = system: NK-YS (IL-2 2.5 ng/mL); assay: as above; settings: 72 h
[8] = system: NKL (IL-2 2.5 ng/mL); assay: as above; settings: 72 h
[9] = system: SNK-6 (IL-2 2.5 ng/mL); assay: as above; settings: 72 h
[10] = system: YT (IL-2 2.5 ng/mL); assay: as above; settings: 72 h
[11] = system: normal primary NK cells, pool 1 (3 donors) (IL-2 2.5 ng/mL); assay: as above; settings: 72 h
[12] = system: normal primary NK cells, pool 1 (3 donors), resting (IL-2 0 ng/mL); assay: as above; settings: 72 h
[13] = system: normal primary NK cells, pool 2 (3 donors) (IL-2 2.5 ng/mL); assay: as above; settings: 72 h
[14] = system: normal primary NK cells, pool 3 (3 donors) (IL-2 2.5 ng/mL); assay: as above; settings: 72 h
[15] = system: normal NK cells expanded with K562-aAPC; assay: drug sensitivity score (DSS) (DSS units); higher = more sensitive; extreme values may be limits of the assay; settings: 72 h; IL-2 2.5 ng/mL
Procedure: as §1

[16] = system: DERL-7 (IL-2 2.5 ng/mL); assay: as above; settings: 72 h
[17] = system: IMC-1 (IL-2 20 ng/mL); assay: as above; settings: 72 h
[18] = system: KAI3 (IL-2 2.5 ng/mL); assay: as above; settings: 72 h
[19] = system: KHYG-1 (IL-2 2.5 ng/mL); assay: as above; settings: 72 h
[20] = system: NK-92 (IL-2 2.5 ng/mL); assay: as above; settings: 72 h
[21] = system: NK-YS (IL-2 2.5 ng/mL); assay: as above; settings: 72 h
[22] = system: NKL (IL-2 2.5 ng/mL); assay: as above; settings: 72 h
[23] = system: SNK-6 (IL-2 2.5 ng/mL); assay: as above; settings: 72 h
[24] = system: YT (IL-2 2.5 ng/mL); assay: as above; settings: 72 h
[25] = system: normal primary NK cells, pool 1 (3 donors) (IL-2 2.5 ng/mL); assay: as above; settings: 72 h
[26] = system: normal primary NK cells, pool 1 (3 donors), resting (IL-2 0 ng/mL); assay: as above; settings: 72 h
[27] = system: normal primary NK cells, pool 2 (3 donors) (IL-2 2.5 ng/mL); assay: as above; settings: 72 h
[28] = system: normal primary NK cells, pool 3 (3 donors) (IL-2 2.5 ng/mL); assay: as above; settings: 72 h

O=C(/C=C\n1cnc(-c2cc(C(F)(F)F)cc(C(F)(F)F)c2)n1)NNc1cnccn1 [Selinexor] (max concentration tested 10000 nM)
percent inhibition of viability [%]
Settings	1 nM	10 nM	100 nM	1000 nM	10000 nM
[1]	4.95	27.1	55.3	96.5	101
[2]	-2.69	16.9	59.3	89.7	99.2
[3]	-4.46	1.62	-10.9	86.9	100
[4]	-3.28	4.63	52.6	93.7	106
[5]	0.08	3.04	35.7	93.3	102
[6]	-2.59	-2.77	33.9	90.6	101
[7]	-3.45	3.74	39	77.4	95.4
[8]	-4.23	11	42.8	76.3	87.8
[9]	-0.01	17.6	63.9	81.6	93.4
[10]	3.93	13.2	61.2	91.8	104
[11]	3.58	9.52	57.5	87.9	98.6
[12]	-3.27	25.6	77.9	87.5	93.1
[13]	-5.72	14.1	65.8	89.2	97.1
[14]	-6.17	1.79	59.1	88.1	99.8

Settings	drug sensitivity score
[15]	25.9
[16]	25
[17]	15.5
[18]	23.9
[19]	21.3
[20]	20.8
[21]	19.4
[22]	19.9
[23]	25.1
[24]	25.4
[25]	24.1
[26]	29
[27]	26
[28]	24.6

Cn1cnc2c(F)c(Nc3ccc(Br)cc3Cl)c(C(=O)NOCCO)cc21 [Selumetinib] (max concentration tested 10000 nM)
percent inhibition of viability [%]
Settings	1 nM	10 nM	100 nM	1000 nM	10000 nM
[1]	-5.33	-3.66	-3.4	-0.06	16.8
[2]	-4.06	8.89	24.4	38.2	51.5
[3]	-12.4	-11.4	-5.26	-4.59	17.3
[4]	6.76	0.73	4.04	12.1	29.3
[5]	1.06	-1.54	13.7	34.2	61.1
[6]	2.8	1.89	-10.2	-8.53	36.1
[7]	5.92	-5.87	0.1	1.88	27.9
[8]	-4.4	-0.32	26.8	39	72.7
[9]	-18.1	-10.6	-25.8	-31.2	-26.9
[10]	2.15	-4.23	-5.27	-0.32	16.7
[11]	-4.68	-3.55	18.9	23.4	19.1
[12]	-1.79	-0.33	21.2	18.2	16.7
[13]	-9.3	-7.88	3.43	19.3	18.2
[14]	-5.55	-8.58	-1.51	-0.3	13.4

Settings	drug sensitivity score
[15]	0.36
[16]	10.2
[17]	0.24
[18]	2.27
[19]	7.98
[20]	1.3
[21]	1.42
[22]	10.8
[23]	0
[24]	0.33
[25]	5.53
[26]	5.28
[27]	2.98
[28]	0.11
